Measured values as given in patent US11484539B2, “Compounds and their uses for alleviating menopause-associated symptoms” (Estetra SPRL, priority 2018, dated 2022).

System: post-menopausal women
Test: Hot Flush Weekly Weighted Score, dose-finding study
Format: in vivo
Procedure: Further, the terms “Hot Flush Weekly Weighted Score”, as used herein, corresponds to a score taking into account frequency and severity which is calculated by using the severity score (as calculated above): [(1× No. of mild VMS)+(2× No. of moderate VMS)+(3× No. of severe VMS)] during a 7 day period.
Such a weighted score was for example used by Notelovitz et al. (“Initial 17β-Estradiol Dose for Treating Vasomotor Symptoms”; Obstetrics and Gynaecology, Vol. 95(5), May 2000, p. 726-731). This score was used to generate the data included in Example 1 further below, under section A. c) “Hot Flush Weekly Weighted Score”.

SMILES: C[C@]12CC[C@@H]3c4ccc(O)cc4CC[C@H]3[C@@H]1[C@@H](O)[C@@H](O)[C@@H]2O [E4, 1,3,5 (10)-estratrien-3,15alpha,16alpha,17beta-tetrol]
- LS adjusted mean change from baseline in Hot Flush Weekly Weighted Score (2.5 mg E4, week 4): −75.37
- LS adjusted mean change from baseline in Hot Flush Weekly Weighted Score (2.5 mg E4, week 12): −89.86
- Mean change from baseline in Hot Flush Weekly Weighted Score (2.5 mg E4 QD per os, week 0): 2.4151
- Mean change from baseline in Hot Flush Weekly Weighted Score (2.5 mg E4 QD per os, week 1): −40.805
- Relative change (% from baseline) in Hot Flush Weekly Weighted Score, mean (2.5 mg E4 QD per os, week 1): −22%
- Mean change from baseline in Hot Flush Weekly Weighted Score (2.5 mg E4 QD per os, week 2): −58.6163
- Relative change (% from baseline) in Hot Flush Weekly Weighted Score, mean (2.5 mg E4 QD per os, week 2): −32%
- Mean change from baseline in Hot Flush Weekly Weighted Score (2.5 mg E4 QD per os, week 3): −74.8798
- Relative change (% from baseline) in Hot Flush Weekly Weighted Score, mean (2.5 mg E4 QD per os, week 3): −43%
- Mean change from baseline in Hot Flush Weekly Weighted Score (2.5 mg E4 QD per os, week 4): −82.75
- Relative change (% from baseline) in Hot Flush Weekly Weighted Score, mean (2.5 mg E4 QD per os, week 4): −47%
- Mean change from baseline in Hot Flush Weekly Weighted Score (2.5 mg E4 QD per os, week 5): −84.6062
- Relative change (% from baseline) in Hot Flush Weekly Weighted Score, mean (2.5 mg E4 QD per os, week 5): −48%
- Mean change from baseline in Hot Flush Weekly Weighted Score (2.5 mg E4 QD per os, week 6): −89.9842
- Relative change (% from baseline) in Hot Flush Weekly Weighted Score, mean (2.5 mg E4 QD per os, week 6): −51%
- Mean change from baseline in Hot Flush Weekly Weighted Score (2.5 mg E4 QD per os, week 7): −94.2468
- Relative change (% from baseline) in Hot Flush Weekly Weighted Score, mean (2.5 mg E4 QD per os, week 7): −53%
- Mean change from baseline in Hot Flush Weekly Weighted Score (2.5 mg E4 QD per os, week 8): −97.1084
- Relative change (% from baseline) in Hot Flush Weekly Weighted Score, mean (2.5 mg E4 QD per os, week 8): −55%
- Mean change from baseline in Hot Flush Weekly Weighted Score (2.5 mg E4 QD per os, week 9): −101.429
- Relative change (% from baseline) in Hot Flush Weekly Weighted Score, mean (2.5 mg E4 QD per os, week 9): −57%
- Mean change from baseline in Hot Flush Weekly Weighted Score (2.5 mg E4 QD per os, week 10): −100.18
- Relative change (% from baseline) in Hot Flush Weekly Weighted Score, mean (2.5 mg E4 QD per os, week 10): −57%
- Mean change from baseline in Hot Flush Weekly Weighted Score (2.5 mg E4 QD per os, week 11): −97.6016
- Relative change (% from baseline) in Hot Flush Weekly Weighted Score, mean (2.5 mg E4 QD per os, week 11): −56%
- Mean change from baseline in Hot Flush Weekly Weighted Score (2.5 mg E4 QD per os, week 12): −98.5424
- Relative change (% from baseline) in Hot Flush Weekly Weighted Score, mean (2.5 mg E4 QD per os, week 12): −57%
- Difference with placebo, LS adjusted mean, absolute change in Hot Flush Weekly Weighted Score (2.5 mg E4 vs placebo, week 4): 2.897
- Difference with placebo, LS adjusted mean, absolute change in Hot Flush Weekly Weighted Score (2.5 mg E4 vs placebo, week 12): 14.83
- Differences with placebo, relative change in weekly weighted score, p_value (2.5 mg vs 0 mg, week 4): 1.0000
- Differences with placebo, relative change in weekly weighted score, p_value (2.5 mg vs 0 mg, week 12): 0.6744
- Relative change (% from baseline) in weekly weighted score, LS adjusted mean (2.5 mg, Week 12): −0.5795
- Relative change (% from baseline) in weekly weighted score, LS adjusted mean (2.5 mg, week 4): −0.474
- LS adjusted mean change from baseline in Hot Flush Weekly Weighted Score (5 mg E4, week 4): −66.88
- LS adjusted mean change from baseline in Hot Flush Weekly Weighted Score (5 mg E4, week 12): −95.92
- Mean change from baseline in Hot Flush Weekly Weighted Score (5 mg E4 QD per os, week 0): 1.8297
- Mean change from baseline in Hot Flush Weekly Weighted Score (5 mg E4 QD per os, week 1): −33.7092
- Relative change (% from baseline) in Hot Flush Weekly Weighted Score, mean (5 mg E4 QD per os, week 1): −22%
- Mean change from baseline in Hot Flush Weekly Weighted Score (5 mg E4 QD per os, week 2): −49.1319
- Relative change (% from baseline) in Hot Flush Weekly Weighted Score, mean (5 mg E4 QD per os, week 2): −32%
- Mean change from baseline in Hot Flush Weekly Weighted Score (5 mg E4 QD per os, week 3): −56.9697
- Relative change (% from baseline) in Hot Flush Weekly Weighted Score, mean (5 mg E4 QD per os, week 3): −37%
- Mean change from baseline in Hot Flush Weekly Weighted Score (5 mg E4 QD per os, week 4): −64.8344
- Relative change (% from baseline) in Hot Flush Weekly Weighted Score, mean (5 mg E4 QD per os, week 4): −43%
- Mean change from baseline in Hot Flush Weekly Weighted Score (5 mg E4 QD per os, week 5): −71.6181
- Relative change (% from baseline) in Hot Flush Weekly Weighted Score, mean (5 mg E4 QD per os, week 5): −46%
- Mean change from baseline in Hot Flush Weekly Weighted Score (5 mg E4 QD per os, week 6): −88.2337
- Relative change (% from baseline) in Hot Flush Weekly Weighted Score, mean (5 mg E4 QD per os, week 6): −56%
- Mean change from baseline in Hot Flush Weekly Weighted Score (5 mg E4 QD per os, week 7): −88.2989
- Relative change (% from baseline) in Hot Flush Weekly Weighted Score, mean (5 mg E4 QD per os, week 7): −56%
- Mean change from baseline in Hot Flush Weekly Weighted Score (5 mg E4 QD per os, week 8): −89.2039
- Relative change (% from baseline) in Hot Flush Weekly Weighted Score, mean (5 mg E4 QD per os, week 8): −56%
- Mean change from baseline in Hot Flush Weekly Weighted Score (5 mg E4 QD per os, week 9): −90.923
- Relative change (% from baseline) in Hot Flush Weekly Weighted Score, mean (5 mg E4 QD per os, week 9): −58%
- Mean change from baseline in Hot Flush Weekly Weighted Score (5 mg E4 QD per os, week 10): −91.4798
- Relative change (% from baseline) in Hot Flush Weekly Weighted Score, mean (5 mg E4 QD per os, week 10): −59%
- Mean change from baseline in Hot Flush Weekly Weighted Score (5 mg E4 QD per os, week 11): −95.8365
- Relative change (% from baseline) in Hot Flush Weekly Weighted Score, mean (5 mg E4 QD per os, week 11): −61%
- Mean change from baseline in Hot Flush Weekly Weighted Score (5 mg E4 QD per os, week 12): −93.5117
- Relative change (% from baseline) in Hot Flush Weekly Weighted Score, mean (5 mg E4 QD per os, week 12): −60%
- Difference with placebo, LS adjusted mean, absolute change in Hot Flush Weekly Weighted Score (5 mg E4 vs placebo, week 4): 11.39
- Difference with placebo, LS adjusted mean, absolute change in Hot Flush Weekly Weighted Score (5 mg E4 vs placebo, week 12): 8.767
- Differences with placebo, relative change in weekly weighted score, p_value (5.0 mg vs 0 mg, week 4): 0.8833
- Differences with placebo, relative change in weekly weighted score, p_value (5.0 mg vs 0 mg, week 12): 0.8871
- Relative change (% from baseline) in weekly weighted score, LS adjusted mean (5 mg, Week 12): −0.5993
- Relative change (% from baseline) in weekly weighted score, LS adjusted mean (5 mg, week 4): −0.4262
- LS adjusted mean change from baseline in Hot Flush Weekly Weighted Score (10 mg E4, week 4): −85.56
- LS adjusted mean change from baseline in Hot Flush Weekly Weighted Score (10 mg E4, week 12): −109.8
- Mean change from baseline in Hot Flush Weekly Weighted Score (10 mg E4 QD per os, week 0): 2.3773
- Mean change from baseline in Hot Flush Weekly Weighted Score (10 mg E4 QD per os, week 1): −31.4591
- Relative change (% from baseline) in Hot Flush Weekly Weighted Score, mean (10 mg E4 QD per os, week 1): −20%
- Mean change from baseline in Hot Flush Weekly Weighted Score (10 mg E4 QD per os, week 2): −54.0849
- Relative change (% from baseline) in Hot Flush Weekly Weighted Score, mean (10 mg E4 QD per os, week 2): −35%
- Mean change from baseline in Hot Flush Weekly Weighted Score (10 mg E4 QD per os, week 3): −73.5189
- Relative change (% from baseline) in Hot Flush Weekly Weighted Score, mean (10 mg E4 QD per os, week 3): −47%
- Mean change from baseline in Hot Flush Weekly Weighted Score (10 mg E4 QD per os, week 4): −87.2673
- Relative change (% from baseline) in Hot Flush Weekly Weighted Score, mean (10 mg E4 QD per os, week 4): −54%
- Mean change from baseline in Hot Flush Weekly Weighted Score (10 mg E4 QD per os, week 5): −93.4648
- Relative change (% from baseline) in Hot Flush Weekly Weighted Score, mean (10 mg E4 QD per os, week 5): −58%
- Mean change from baseline in Hot Flush Weekly Weighted Score (10 mg E4 QD per os, week 6): −101.646
- Relative change (% from baseline) in Hot Flush Weekly Weighted Score, mean (10 mg E4 QD per os, week 6): −64%
- Mean change from baseline in Hot Flush Weekly Weighted Score (10 mg E4 QD per os, week 7): −103.024
- Relative change (% from baseline) in Hot Flush Weekly Weighted Score, mean (10 mg E4 QD per os, week 7): −64%
- Mean change from baseline in Hot Flush Weekly Weighted Score (10 mg E4 QD per os, week 8): −104.835
- Relative change (% from baseline) in Hot Flush Weekly Weighted Score, mean (10 mg E4 QD per os, week 8): −66%
- Mean change from baseline in Hot Flush Weekly Weighted Score (10 mg E4 QD per os, week 9): −107.578
